From PubChem BioAssay (NCI)
“And” between values parts separate entries of the source, which are not always exact repeats. Equal entries are not always repeated.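 Growth conditions: 96-well plates. Treatment: test compound, 48 hours, 5 concentrations. Analysis: linear interpolation between bracketing concentrations; unreached endpoints set to highest concentration. At the GI50, growth is halved. At the TGI there is no net growth.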

Assays:
Test in all cases: NCI-60 cell line screen, 48 h
HCT-15 colon = system: HCT-15 colon
SNB-19 CNS = system: SNB-19 CNS
786-0 renal = system: 786-0 renal
MDA-MB-435 = system: MDA-MB-435
CAKI-1 renal = system: CAKI-1 renal
OVCAR-4 ovarian = system: OVCAR-4 ovarian
SR leukemia = system: SR leukemia
SF-539 CNS = system: SF-539 CNS
NCI-H23 lung = system: NCI-H23 lung
CCRF-CEM leukemia = system: CCRF-CEM leukemia

SMILES	GI50 (HCT-15 colon)	TGI (HCT-15 colon)	TGI (SNB-19 CNS)	GI50 (786-0 renal)	TGI (786-0 renal)	GI50 (MDA-MB-435)	TGI (MDA-MB-435)	GI50 (CAKI-1 renal)	TGI (CAKI-1 renal)	GI50 (OVCAR-4 ovarian)	TGI (OVCAR-4 ovarian)	TGI (SR leukemia)	GI50 (SF-539 CNS)	TGI (SF-539 CNS)	GI50 (NCI-H23 lung)	TGI (NCI-H23 lung)	GI50 (CCRF-CEM leukemia)	TGI (CCRF-CEM leukemia)	GI50 (SNB-19 CNS)	GI50 (SR leukemia)
C[C@H]1CC[C@@]2(NC1)O[C@H]1C[C@H]3[C@@H]4CC[C@H]5C[C@@H](O)CC[C@]5(C)[C@H]4CC[C@]3(C)[C@H]1[C@@H]2C	20.9 µM	50 µM and > 100 µM	50 µM and > 100 µM	9.23 µM	18.7 µM and > 100 µM	17.3 µM	50 µM	12.9 µM	34.5 µM and > 100 µM	17.3 µM	50 µM and > 100 µM	> 100 µM	13.8 µM	32.2 µM and > 100 µM	8.92 µM	19.7 µM and > 100 µM	18.3 µM	50 µM and > 100 µM	–	–
COc1cc2nc(N3CCCC3)nc(NCc3ccccc3)c2cc1OC	1.79 µM	4.22 µM	17.7 µM	1.65 µM	3.07 µM	1.69 µM	3.16 µM	1.57 µM	3.14 µM	2.95 µM	11.3 µM	5.3 µM	1.71 µM	3.12 µM	11.2 µM	25.2 µM	2.55 µM	8.07 µM	5.05 µM	1.53 µM
CC1=C(c2cccc(O)c2)[C@H](c2ccc(OCCN3CC(CF)C3)cc2)Oc2ccc(O)cc21	6.09 µM	19.6 µM	22.1 µM	5.15 µM	18.9 µM	12 µM	24.3 µM	3.13 µM	12.9 µM	9.62 µM	21.7 µM	36.2 µM	5.78 µM	18.3 µM	11.2 µM	25.1 µM	4.72 µM	21.2 µM	10.1 µM	3.76 µM
CN1CCN(C(=O)C(C)(C)c2ccc(C(=O)Nc3cn4cc(-c5ccncc5)ccc4n3)cc2)CC1	0.312 µM	7.2 µM	> 100 µM	0.539 µM	> 100 µM	0.367 µM	17.5 µM	0.193 µM	> 100 µM	0.35 µM	> 100 µM	4.7 µM	0.246 µM	1.17 µM	0.307 µM	19.2 µM	0.28 µM	> 100 µM	0.239 µM	0.135 µM
C[C@@H]1[C@H](C)N1CC(O)Cn1ccnc1[N+](=O)[O-] (stereo partly specified)	–	> 100 µM	> 100 µM	–	> 100 µM	–	> 100 µM	–	> 100 µM	–	> 100 µM	> 100 µM	–	> 100 µM	–	> 100 µM	–	> 100 µM	–	–
Cc1cc2c(C(C)C)c(O)c(O)cc2c(O)c1-c1c(C)cc2c(C(C)C)c(O)c(O)cc2c1O	5.31 µM	20.9 µM	35.6 µM	16.7 µM	33.9 µM	14.5 µM	31.3 µM	19.2 µM	82.6 µM	14 µM	33.8 µM	28.4 µM	19.9 µM	43.5 µM	18.4 µM	37.5 µM	3.91 µM	21.5 µM	14.9 µM	8.24 µM
O=C1OCC2=C1C(c1cccc(Cl)c1)c1cc3c(cc1N2CCO)OCCO3 (stereo unspecified)	0.073 µM	> 100 µM	> 100 µM	0.064 µM	5.5 µM	0.0236 µM	0.0626 µM	0.0697 µM	> 55.6 µM	0.118 µM	> 100 µM	67.4 µM	0.0467 µM	0.975 µM	0.097 µM	> 57.2 µM	0.112 µM	> 100 µM	0.0747 µM	0.0581 µM
Cc1[nH]c2ccccc2c1CCCO	> 100 µM	> 100 µM	> 100 µM	> 100 µM	> 100 µM	> 100 µM	> 100 µM	> 100 µM	> 100 µM	> 100 µM	> 100 µM	> 100 µM	> 100 µM	> 100 µM	> 100 µM	> 100 µM	> 100 µM	> 100 µM	> 100 µM	> 100 µM
Cc1cc2c(cc1Cl)SC1=NN(C)C(C)N1S2(=O)=O (stereo unspecified)	> 100 µM	> 100 µM	> 100 µM	> 100 µM	> 100 µM	> 100 µM	> 100 µM	> 100 µM	> 100 µM	74.8 µM	> 100 µM	> 100 µM	> 100 µM	> 100 µM	> 100 µM	> 100 µM	> 100 µM	> 100 µM	> 100 µM	39.2 µM
CC(C)(C)C(=O)OCC1C(=O)OCC1C(=O)N1Cc2cc3ccccc3nc2C1 (stereo unspecified)	–	6.36 µM	38.6 µM	–	7.69 µM	–	15.7 µM	–	3.87 µM	–	7.67 µM	3.77 µM	–	12 µM	–	13.6 µM	–	5.89 µM	–	–
O=C(C/C(=N/O)C(=O)NC1=C(Cl)C(=O)c2ccccc2C1=O)CC(c1ccccc1)c1c(O)c2ccccc2oc1=O (stereo unspecified)	–	14.4 µM	> 100 µM	–	> 100 µM	–	4.72 µM	–	32.6 µM	–	22.2 µM	> 100 µM	–	31.7 µM	–	72.1 µM	–	> 100 µM	–	–
COC1CC(O[C@H]2CC[C@@]3(C)[C@H](CC[C@@H]4[C@@H]3CC[C@]3(C)[C@@H](C5=CC(=O)OC5)[C@@H](OC(C)=O)C[C@]43O)C2)OC(C)C1O (stereo partly specified)	< 0.01 µM	< 0.01 µM	< 0.01 µM	< 0.01 µM	< 0.01 µM	< 0.01 µM	< 0.0109 µM	< 0.01 µM	< 0.01 µM	< 0.01 µM	< 0.01 µM	–	< 0.01 µM	< 0.01 µM	< 0.01 µM	< 0.01 µM	< 0.01 µM	–	< 0.01 µM	< 0.01 µM
COc1ccc(C/C(C)=C(/c2ccc(OCCN3CCCCC3)cc2)c2ccc(OC(=O)NCc3ccccc3)cc2)cc1	0.339 µM	0.706 µM	0.852 µM	0.316 µM	0.674 µM	0.393 µM	0.736 µM	0.405 µM	0.769 µM	0.393 µM	0.764 µM	1.34 µM	0.401 µM	0.766 µM	0.425 µM	0.838 µM	0.523 µM	1.55 µM	0.459 µM	0.353 µM
